In patent US5194383A, “Process for making L-aminoacylase” (priority 1991, dated 1993):
Where two headings read alike, the source gives them in different places.

Assays:
L-amino acylase [1] = type: biochemical, Alcaligenes denitrificans DA181; conditions: for influence of the ion on the enzyme: in words, 30 minutes at 37° C., buffer A
Procedure: Various metal ions were incubated with an appropriate amount of enzyme for 30 min in 50 mM Tris-HCl pH 8.0. The remaining activity was determined by ninhydrin method.

L-amino acylase [2] = experiment: Substrate specificity of L-amino acylase (ninhydrin method); type: biochemical, Alcaligenes denitrificans DA181; conditions: for Relative activity (%) L-amino acylase: 37° C., 50 mM Tris-HCl buffer pH 8.0
Procedure: This enzyme may hydrolyze N-acetyl-L-amino acids with a higher reactivity, but hydrolyze the N-acetyl-D-amino acids with a lower reactivity.
(§1) A comparison of the substrate specificity of L-amino acylase of this invention with D-amino acylase is summarized as shown in Table 3.
(§2) The enzyme activity was determined at 37° C. in 50 mM TrisCHl
(§3) buffer pH 8.0 by ninhydrin method.

D-amino acylase = experiment: Substrate specificity of D-amino acylase (ninhydrin method); type: biochemical; conditions: D-form of substrate; 37° C., 50 mM Tris-HCl buffer pH 8.0
Procedure: as §1, §2, §3

[3] = tested on: L-aminoacylase by Aspergillus; conditions: conventional Aspergillus enzyme; cited from earlier work
[4] = metal ion 1 mM, 30 min, 50 mM Tris-HCl pH 8.0
[5] = metal ion 10^-1 mM, 30 min, 50 mM Tris-HCl pH 8.0, 100 µM
[6] = metal ion 10^-2 mM, 30 min, 50 mM Tris-HCl pH 8.0, 10 µM
[7] = metal ion 10^-3 mM, 30 min, 50 mM Tris-HCl pH 8.0, 1 µM

[Cl][Cu][Cl] [CuCl2]
influence of the ion on the enzyme (L-amino acylase [1]): inhibited
relative activity of L-amino acylase (%) (L-amino acylase [1]; [4]): 5%
relative activity of L-amino acylase (%) (L-amino acylase [1]; [5]): 77%
relative activity of L-amino acylase (%) (L-amino acylase [1]; [6]): 90%
relative activity of L-amino acylase (%) (L-amino acylase [1]; [7]): 94%

O=C(O)CN(CCN(CC(=O)O)CC(=O)O)CC(=O)O [EDTA.2Na]
relative activity of L-amino acylase (%) (L-amino acylase [1]; 50 mm tris-hcl, pH 8, 30 min, 1000 µM): 55%

[Ba+2].[Cl-].[Cl-] [BaCl2]
relative activity of L-amino acylase (%) (L-amino acylase [1]; [4]): 92%

CC(=O)N[C@H](C(=O)O)C(C)C [N-acetyl-valine]
Relative activity (%) L-amino acylase (L-amino acylase [2]; D-form of substrate): 7%
Relative activity (%) L-amino acylase (L-amino acylase [2]; L-form of substrate): 95%
Relative activity (%) D-amino acylase (D-amino acylase): 6%

CC(=O)N[C@@H](C)C(=O)O [N-acetyl-alanine]
Relative activity (%) L-amino acylase (L-amino acylase [2]; D-form of substrate): 0%
Relative activity (%) L-amino acylase (L-amino acylase [2]; L-form of substrate): 78%
Relative activity (%) D-amino acylase (D-amino acylase): 25%

CC[C@@H](C)[C@H](NC(C)=O)C(=O)O [N-acetyl-alloisoleucine]
Relative activity (%) L-amino acylase (L-amino acylase [2]; D-form of substrate): 0%
Relative activity (%) D-amino acylase (D-amino acylase): 12%

[Cl][Fe][Cl] [FeCl2]
influence of the ion on the enzyme (L-amino acylase [1]): inhibited
relative activity of L-amino acylase (%) (L-amino acylase [1]; [4]): 15%

CC(=O)N[C@@H](Cc1ccccc1)C(=O)O [N-acetyl-phenylalanine]
Relative activity (%) L-amino acylase (L-amino acylase [2]; D-form of substrate): 0.9%
Relative activity (%) L-amino acylase (L-amino acylase [2]; L-form of substrate): 34%
Relative activity (%) D-amino acylase (D-amino acylase): 81%

CC(=O)N[C@@H](CC(=O)O)C(=O)O [N-acetyl-aspartic acid]
Relative activity (%) L-amino acylase (L-amino acylase [2]; L-form of substrate): 1%

[Ca+2].[Cl-].[Cl-] [CaCl2]
relative activity of L-amino acylase (%) (L-amino acylase [1]; [4]): 94%

CC(=O)N[C@@H](Cc1c[nH]c2ccccc12)C(=O)O [N-acetyl-tryptophan]
Relative activity (%) L-amino acylase (L-amino acylase [2]; D-form of substrate): 0.9%
Relative activity (%) L-amino acylase (L-amino acylase [2]; L-form of substrate): 11%
Relative activity (%) D-amino acylase (D-amino acylase): 33%

CSCC[C@H](NC(C)=O)C(=O)O [N-acetyl-methionine]
Relative activity (%) L-amino acylase (L-amino acylase [2]; D-form of substrate): 0.12%
Relative activity (%) L-amino acylase (L-amino acylase [2]; L-form of substrate): 30%
Relative activity (%) D-amino acylase (D-amino acylase): 100%

[Co+2] [cobalt ions]
enzyme activation [3]: 2.5 fold

[Cl][Ni][Cl] [NiCl2]
relative activity of L-amino acylase (%) (L-amino acylase [1]; [4]): 95%

CC(=O)N[C@@H](Cc1c[nH]cn1)C(=O)O [N-acetyl-histidine]
Relative activity (%) L-amino acylase (L-amino acylase [2]; L-form of substrate): 0.08%

[Cl-].[Cl-].[Co+2] [CoCl2]
relative activity of L-amino acylase (%) (L-amino acylase [1]; [4]): 120%

CC(=O)N[C@@H](CC(N)=O)C(=O)O [N-acetyl-asparagine]
Relative activity (%) L-amino acylase (L-amino acylase [2]; D-form of substrate): 0%
Relative activity (%) L-amino acylase (L-amino acylase [2]; L-form of substrate): 3%
Relative activity (%) D-amino acylase (D-amino acylase): 17%

CC(=O)N[C@@H](CCCNC(=N)N)C(=O)O [N-acetyl-arginine]
Relative activity (%) L-amino acylase (L-amino acylase [2]; L-form of substrate): 0.04%

CC(=O)N[C@@H](C(=O)O)c1ccccc1 [N-acetyl-phenylglycine]
Relative activity (%) L-amino acylase (L-amino acylase [2]; D-form of substrate): 0%
Relative activity (%) D-amino acylase (D-amino acylase): 5%

[Cl][Mn][Cl] [MnCl2]
relative activity of L-amino acylase (%) (L-amino acylase [1]; [4]): 86%

CC(C)[C@H](NC(=O)CCl)C(=O)O [N-chloroacetyl-L-valine]
reactivity of hydrolysis by the enzyme (L-amino acylase [2]; in words): especially high

[Cl-].[Cl-].[Zn+2] [ZnCl2]
influence of the ion on the enzyme (L-amino acylase [1]): inhibited
relative activity of L-amino acylase (%) (L-amino acylase [1]; [4]): 61%

[Cl-].[Cl-].[Sr+2] [SrCl2]
relative activity of L-amino acylase (%) (L-amino acylase [1]; [4]): 80%

[Cl][Hg][Cl] [HgCl2]
influence of the ion on the enzyme (L-amino acylase [1]): inhibited
relative activity of L-amino acylase (%) (L-amino acylase [1]; [7]): 0%
relative activity of L-amino acylase (%) (L-amino acylase [1]; metal ion 10^-4 mM, 30 min, 50 mM Tris-HCl pH 8.0, 0.1 µM): 0%

[Cl-].[Cl-].[Mg+2] [MgCl2]
relative activity of L-amino acylase (%) (L-amino acylase [1]; [4]): 98%

[Cl][Cd][Cl] [CdCl2]
influence of the ion on the enzyme (L-amino acylase [1]): inhibited
relative activity of L-amino acylase (%) (L-amino acylase [1]; [4]): 16%

CC(=O)N[C@@H](CC(C)C)C(=O)O [N-acetyl-leucine]
Relative activity (%) L-amino acylase (L-amino acylase [2]; D-form of substrate): 2%
Relative activity (%) L-amino acylase (L-amino acylase [2]; L-form of substrate): 10%
Relative activity (%) D-amino acylase (D-amino acylase): 60%

CC(C)[C@H](NC(=O)CCl)C(=O)O [N-chloroacetyl-valine]
Relative activity (%) L-amino acylase (L-amino acylase [2]; D-form of substrate): 0.8%
Relative activity (%) L-amino acylase (L-amino acylase [2]; L-form of substrate): 100%
Relative activity (%) D-amino acylase (D-amino acylase): 66%

[Cl][Pb][Cl] [PbCl2]
influence of the ion on the enzyme (L-amino acylase [1]): inhibited
relative activity of L-amino acylase (%) (L-amino acylase [1]; [4]): 50%
relative activity of L-amino acylase (%) (L-amino acylase [1]; [5]): 71%
relative activity of L-amino acylase (%) (L-amino acylase [1]; [6]): 71%
relative activity of L-amino acylase (%) (L-amino acylase [1]; [7]): 97%

CC(=O)N[C@@H](CCC(=O)O)C(=O)O [N-acetyl-glutamic acid]
Relative activity (%) L-amino acylase (L-amino acylase [2]; L-form of substrate): 0.12%

CC(=O)N[C@@H](Cc1ccc(O)cc1)C(=O)O [N-acetyl-tyrosine]
Relative activity (%) L-amino acylase (L-amino acylase [2]; L-form of substrate): 36%
